Measured values taken from US20250241884A1, “Pharmaceutical Compositions of D10-Docosahexaenoic Acid or Esters Thereof” (BioJiva LLC, priority 2022, published 2025).
Entries after “also recorded” stand apart in the source; their conditions may differ.

Tests used:
[1] = test system: adult male wild-type C57BL/6J mice; experiment: Protection against geographic atrophy after intravitreal ferric ammonium citrate in mice fed D-DHA; format: in vivo; settings: for protection against geographic atrophy: intravitreal ferric ammonium citrate
Description: In this example, two cohorts of adult male wild-type C57BL/6J mice (Jackson Labs) were used. Both cohorts were fed identical feed containing 0.25% or 0.5% D-DHA or matching amounts of DHA as controls. After 4 weeks, the mice were given an intravitreal injection of 1 microliter of 0.5 millimolar ferric ammonium citrate diluted in 0.9% saline (test) or 1 microliter of 0.9% saline (control). Mice were then continued on their respective diets for 4 weeks after injection in order to evaluate whether D-DHA could protect against geographic atrophy which is related to AMD.

[2] = Predicted steady-state D-DHA substitution and plasma decline without dosing in patients, calculated from Table 2 / FIG. 1; set-up: species or system human; settings: for D-DHA substitution rate at steady-state (% of total DHA): DHA in human diet 130 mg/day
Description: In contrast to controlled experimental diets, naturally occurring DHA is consumed by patients treated with D-DHA which can dilute the relative percentage of administered D-DHA absorbed with the total DHA pool and its final concentration at steady state in blood and eventually in the target tissue such as retina. The data and standard curves referred to above allow for the determination of retinal steady-state active D-DHA concentrations with reasonable accuracy by calculating the D-DHA/total DHA ratio in plasma and/or red blood cells. Table 4 exemplifies this by using a mean daily dietary intake of about 130 mg of DHA per day (which represents the 90th percentile of the mean usual DHA intake by males >51 years of age in the US.
In each case, the first order kinetics evidence that a dose of 250 mg dose of D-DHA will provide for a steady-state ratio of active D-DHA based on the total DHA concentration present, as set forth in Table 4. Extrapolating backwards from the case in Table 4, a dose of at least 130 mg/day of D-DHA should provide a 1:1 ratio of active D-DHA to DHA. That ratio has been shown above to be therapeutic. And a dose of 250 mg of higher should provide a ratio of 1.9:1 or higher which provides a margin for non-compliance as decribed herein above.
Tables 5, 6, and 7 are based on Table 2 and describe the time it takes for plasma D-DHA levels to fall below 50% or below 20% with 5 different daily doses of D-DHA in (i) patients in the 90th percentile of daily intake consuming up to 130 mg DHA (Table 5), (ii) those in the 95th percentile with a daily intake of up to 180 mg DHA (Table 6), and (iii) an example of a patient consuming more than one meal of oily fish per week with up to 260 mg daily DHA intake.

geographic atrophy = experiment: Proposed evaluation of geographic atrophy progression in patients versus placebo (safflower oil); format: in vivo, human
Method: Based on the above experiment, the following provides a proposed evaluation in reduction in the rate of macular degeneration progression in a cohort of patients treated with deuterated docosahexaenoic acid ethyl ester, as compared to a cohort of test patients treated with placebo. Specifically, the treated cohort is administered 250 mg/day of deuterated docosahexaenoic acid ethyl ester or 250 mg/day of safflower oil. The patients are maintained on this dosing regimen throughout the clinical study. Periodic measurements of further geographic atrophy development are obtained.
Dosing is continued for 6 or 12, or 18 or 24 months. At that time, the average extent of geographic atrophy progression is measured for each cohort. The efficacy of the treatment protocol is evaluated by comparing the extent of geographic atrophy progression in a treated population against a placebo population. […]

[3] = Daily D-DHA Dose 250 mg, Background DHA/Day 130 mg (90th percentile, US males)
[4] = Daily D-DHA Dose 250 mg, Background DHA/Day 180 mg (95th percentile, US males)
[5] = Daily D-DHA Dose 250 mg, Background DHA/Day 260 mg (>1 meal of oily fish per week)
[6] = Daily D-DHA Dose 500 mg, Background DHA/Day 130 mg (90th percentile, US males)
[7] = Daily D-DHA Dose 500 mg, Background DHA/Day 180 mg (95th percentile, US males)
[8] = Daily D-DHA Dose 500 mg, Background DHA/Day 260 mg (>1 meal of oily fish per week)
[9] = Daily D-DHA Dose 750 mg, Background DHA/Day 130 mg (90th percentile, US males)
[10] = Daily D-DHA Dose 750 mg, Background DHA/Day 180 mg (95th percentile, US males)
[11] = Daily D-DHA Dose 750 mg, Background DHA/Day 260 mg (>1 meal of oily fish per week)
[12] = Daily D-DHA Dose 1000 mg, Background DHA/Day 130 mg (90th percentile, US males)
[13] = Daily D-DHA Dose 1000 mg, Background DHA/Day 180 mg (95th percentile, US males)
[14] = Daily D-DHA Dose 1000 mg, Background DHA/Day 260 mg (>1 meal of oily fish per week)
[15] = Daily D-DHA Dose 1250 mg, Background DHA/Day 130 mg (90th percentile, US males)
[16] = Daily D-DHA Dose 1250 mg, Background DHA/Day 180 mg (95th percentile, US males)
[17] = Daily D-DHA Dose 1250 mg, Background DHA/Day 260 mg (>1 meal of oily fish per week)

[2H]C([2H])(/C=C\CC)/C=C\C([2H])([2H])/C=C\C([2H])([2H])/C=C\C([2H])([2H])/C=C\C([2H])([2H])/C=C\CCC(=O)O [D-DHA, D-10-docosahexaenoic acid]
protection against geographic atrophy ([1]; concentration of D-DHA at least 50% of the total DHA in the retina, feed 0.25% or 0.5% D-DHA): fully protected against geographic atrophy
protection against geographic atrophy ([1]; lower concentrations of D-DHA to DHA (below 50% of total DHA in the retina)): protection was achieved but at reduced rates
protection / reduction in lipid peroxidation ([1]; ratio of about 1:4 of D-DHA to DHA): the protection is accorded; also recorded: sufficient to provide for therapeutic reduction in lipid peroxidation
protection / reduction in lipid peroxidation ([1]; ratio of at least about 1:1 D-DHA to DHA): protect is maximal; also recorded: near maximal results are obtained
D-DHA Substitution Rate [2, 3]: ~66%
D-DHA/DHA Ratio [2, 3]: 1.92 to 1
Time to reach 20% in Plasma (0.2:1 D-DHA to DHA Ratio) w/o taking oral D-DHA [2, 3]: ≤ 77 days
Time to reach ≤50% in Plasma (1:1 D-DHA to DHA Ratio) w/o taking oral D-DHA [2, 3]: ≤ 22 days
D-DHA Substitution Rate [2, 4]: ~58%
Days to reach ≤50% in Plasma (1:1 D-DHA to DHA Ratio) w/o taking oral D-DHA [2, 4]: ≤ 11 days
Time to reach 20% in Plasma (0.2:1 D-DHA to DHA Ratio) w/o taking oral D-DHA [2, 4]: ≤ 66 days
D-DHA Substitution Rate [2, 5]: ~49%
Time to reach 20% in Plasma (0.2:1 D-DHA to DHA Ratio) w/o taking oral D-DHA [2, 5]: ≤ 29 days
D-DHA Substitution Rate [2, 6]: ~79%
Time to reach 20% in Plasma (0.2:1 D-DHA to DHA Ratio) w/o taking oral D-DHA [2, 6]: ≤ 46 days
Time to reach ≤50% in Plasma (1:1 D-DHA to DHA Ratio) w/o taking oral D-DHA [2, 6]: ≤ 6 days
D-DHA Substitution Rate [2, 7]: ~74%
Days to reach ≤50% in Plasma (1:1 D-DHA to DHA Ratio) w/o taking oral D-DHA [2, 7]: ≤ 35 days
Time to reach 20% in Plasma (0.2:1 D-DHA to DHA Ratio) w/o taking oral D-DHA [2, 7]: ≤ 90 days
D-DHA Substitution Rate [2, 8]: ~66%
Days to reach ≤50% in Plasma (1:1 D-DHA to DHA Ratio) w/o taking oral D-DHA [2, 8]: ≤ 8 days
Time to reach 20% in Plasma (0.2:1 D-DHA to DHA Ratio) w/o taking oral D-DHA [2, 8]: ≤ 63 days
D-DHA Substitution Rate [2, 9]: ~85%
Time to reach 20% in Plasma (0.2:1 D-DHA to DHA Ratio) w/o taking oral D-DHA [2, 9]: ≤ 101 days
Time to reach ≤50% in Plasma (1:1 D-DHA to DHA Ratio) w/o taking oral D-DHA [2, 9]: ≤ 60 days
D-DHA Substitution Rate [2, 10]: ~81%
Days to reach ≤50% in Plasma (1:1 D-DHA to DHA Ratio) w/o taking oral D-DHA [2, 10]: ≤ 49 days
Time to reach 20% in Plasma (0.2:1 D-DHA to DHA Ratio) w/o taking oral D-DHA [2, 10]: ≤ 104 days
D-DHA Substitution Rate [2, 11]: ~74%
Days to reach ≤50% in Plasma (1:1 D-DHA to DHA Ratio) w/o taking oral D-DHA [2, 11]: ≤ 26 days
Time to reach 20% in Plasma (0.2:1 D-DHA to DHA Ratio) w/o taking oral D-DHA [2, 11]: ≤ 81 days
D-DHA Substitution Rate [2, 12]: ~88%
Time to reach 20% in Plasma (0.2:1 D-DHA to DHA Ratio) w/o taking oral D-DHA [2, 12]: ≤ 125 days
Time to reach ≤50% in Plasma (1:1 D-DHA to DHA Ratio) w/o taking oral D-DHA [2, 12]: ≤ 70 days
D-DHA Substitution Rate [2, 13]: ~85%
Days to reach ≤50% in Plasma (1:1 D-DHA to DHA Ratio) w/o taking oral D-DHA [2, 13]: ≤ 59 days
Time to reach 20% in Plasma (0.2:1 D-DHA to DHA Ratio) w/o taking oral D-DHA [2, 13]: ≤ 114 days
D-DHA Substitution Rate [2, 14]: ~79%
Days to reach ≤50% in Plasma (1:1 D-DHA to DHA Ratio) w/o taking oral D-DHA [2, 14]: ≤ 38 days
Time to reach 20% in Plasma (0.2:1 D-DHA to DHA Ratio) w/o taking oral D-DHA [2, 14]: ≤ 93 days
D-DHA Substitution Rate [2, 15]: ~91%
Time to reach 20% in Plasma (0.2:1 D-DHA to DHA Ratio) w/o taking oral D-DHA [2, 15]: ≤ 132 days
Time to reach ≤50% in Plasma (1:1 D-DHA to DHA Ratio) w/o taking oral D-DHA [2, 15]: ≤ 77 days
D-DHA Substitution Rate [2, 16]: ~87%
Days to reach ≤50% in Plasma (1:1 D-DHA to DHA Ratio) w/o taking oral D-DHA [2, 16]: ≤ 67 days
Time to reach 20% in Plasma (0.2:1 D-DHA to DHA Ratio) w/o taking oral D-DHA [2, 16]: ≤ 121 days
D-DHA Substitution Rate [2, 17]: ~83%
Days to reach ≤50% in Plasma (1:1 D-DHA to DHA Ratio) w/o taking oral D-DHA [2, 17]: ≤ 47 days
Time to reach 20% in Plasma (0.2:1 D-DHA to DHA Ratio) w/o taking oral D-DHA [2, 17]: ≤ 102 days
D-DHA substitution rate at steady-state (% of total DHA) ([2]; Fixed daily D-DHA dose 250 mg): 66%
D-DHA substitution rate at steady-state (% of total DHA) ([2]; Fixed daily D-DHA dose 500 mg): 79%
D-DHA substitution rate at steady-state (% of total DHA) ([2]; Fixed daily D-DHA dose 1000 mg): 88%
time to reach steady state concentrations of active D-DHA after start of therapy ([2]; plasma, patient): about 14 days
time to reach steady state concentrations of active D-DHA after start of therapy ([2]; red blood cell, patient): about 45 days
time to reach steady state concentration of active D-DHA after start of therapy ([2]; skeletal muscle tissue, patient): about 11 weeks
percent reduction in geographic atrophy [(F/E)×100] (geographic atrophy; individual patient treated with 1,000 mg of D-DHA versus placebo cohort, 6, 12, 18 or 24 months): positive percent reduction in geographic atrophy that is statistically significant

[2H]C([2H])(/C=C\CC)/C=C\C([2H])([2H])/C=C\C([2H])([2H])/C=C\C([2H])([2H])/C=C\C([2H])([2H])/C=C\CCC(=O)OCC [deuterated docosahexaenoic acid ethyl ester]
reduction in the rate of disease progression (geographic atrophy progression) (geographic atrophy; cohort of patients, 250 mg/day, 6 or 12 or 18 or 24 months, versus placebo (safflower oil)): statistically significant reduction in the rate of disease progression
percent reduction in geographic atrophy area [(C/B)×100] (geographic atrophy; cohort of treated patients versus placebo cohort, 6, 12, 18 or 24 months post start of therapy): positive percent reduction in geographic atrophy area that is statistically significant
